Data published in publication PMC2362731, “Phase I study of Carzelesin (U-80,244) given (4-weekly) by intravenous bolus schedule” (British Journal of Cancer, 1999).

Tested on: patients with advanced solid tumours
Test: Phase I toxicity of Carzelesin, 4-weekly 10 min IV infusion (NCI-CTC grading)
Format: in vivo, human
Procedure: Carzelesin is a cyclopropylpyrroloindole analogue which acts as a DNA-sequence-specific alkylating agent. In this phase I study, Carzelesin was given as a 4-weekly 10 min IV infusion to 51 patients with advanced solid tumours. Patients received a median of two courses (range 1–5) at one of nine dose levels: 24, 48, 96, 130, 150, 170, 210, 250 and 300 μg m^−2. According to NCI-CTC criteria, non-haematological toxicities (grade 1/2) included fever, nausea and vomiting, mucositis and anorexia, none of which was clearly dose related. The dose-limiting toxicity was haematological and consisted mainly of neutropenia and to a lesser extent thrombocytopenia. From the dose level 150 μg m^−2, the haematological toxicity (particularly thrombocytopenia) was delayed in onset, prolonged and cumulative in some patients. In several courses, double WBC nadirs occurred. The maximum tolerated dose for a single course was 300 μg m^−2. From the dose level 170 μg m^−2, the intended dose intensity could not be delivered to most patients receiving > 2 courses owing to cumulative haematological toxicity. The dose level with the best dose intensity for multiple courses was 150 μg m^−2. The pharmacokinetics of Carzelesin and its metabolites (U-76,073; U-76,074) have been established in 31 patients during the first course of treatment using a HPLC method. […] The concentration of U-76,074 (active metabolite) extended above the lower limit of quantitation (1 ng ml^−1) for short periods of time and only at the higher dose levels. There was no relationship between neutropenia and the AUC of the prodrug Carzelesin, but the presence of detectable plasma levels of the active metabolite U-76,074 was usually associated with a substantial decrease in ANC values. © 1999 Cancer Research Campaign
Carzelesin (U-80,244, Figure 1A) is a cyclopropylpyrroloindole (CPI) prodrug analogue of CC-1065. […] CPI drugs are a class of compounds with unique DNA interactive properties. These agents fit into the minor groove region of DNA, and the CPI function in the molecule mediates a covalent binding to the N3 position of adenine in A-T rich regions, thus forming DNA adducts in a sequence selective fashion (Hurley et al, 1984; Reynolds et al, 1985). Three new CPIs have now been developed. […] Bizelesin differs from the classical CPI drugs in that it contains two chloromethyl functions, which are both converted (via intramolecular rearrangements) to the CPI alkyl- ating species that interact with DNA. Consequently, this agent is capable of forming DNA interstrand cross-links (Lee et al, 1991). […] Therefore, efforts were directed to modu- late the alkylation rate by the preparation of CPI prodrugs that would require chemical or enzymatic conversion. The activation of Carzelesin is a two-step reaction with hydrolysis of the phenyl- urethane substituent to form the intermediate compound U-76,073, followed by ring closure to form the active product U-76,074 (Figure 1B). […] This higher efficacy may be related to the pharmacologic features of the compound. […] Phase I study of Carzelesin (U-80,244) given (4-weekly) by intravenous bolus schedule A Awada1, CJA Punt2, MJ Piccart1, O Van Tellingen3, L Van Manen2, J Kerger1, Y Groot4, J Wanders4, J Verweij5 and DJTh Wagener2 1Institut Jules Bordet, Bd de Waterloo 125, 1000 Brussels, Belgium; 2University Hospital, Geert Grooteplein 8, Box 9101, 6500 HB Nijmegen, The Netherlands; 3The Netherlands Cancer Institute (Antoni van Leeuwenhoek Huis), Plesmanlaan 121, 1066 CX Amsterdam, The Netherlands; 4European Organization for Research and Treatment of Cancer - New Drug Development Office, PO Box 7057, Amsterdam, The Netherlands; 5Rotterdam Cancer Institute, Groene Hilledijk 301, 3075 EA Rotterdam, The Netherlands; on behalf of the EORTC Early Clinical Studies Group and EORTC NDDO Summary Carzelesin is a cyclopropylpyrroloindole analogue which acts as a DNA-sequence-specific alkylating agent. […]

[1] = Table 4, dose levels 150-300 μg m-2 combined, 31 evaluable patients

CCN(CC)c1ccc2cc(C(=O)Nc3ccc4[nH]c(C(=O)N5C[C@@H](CCl)c6c5cc(OC(=O)Nc5ccccc5)c5[nH]cc(C)c65)cc4c3)oc2c1 [Carzelesin]
Thrombocytopenia grade 3/4, patients following the first course (Table 3, dose level 210 μg m-2, one patient had pre-existing grade 1 thrombocytopenia): 0/1
Neutropenia grade 3/4, No. of courses (Table 3, dose level 250 μg m-2): 1/2
Neutropenia grade 3/4, No. of patients (worst grade per patient) (Table 3, dose level 250 μg m-2): 0/2
Neutropenia grade 3/4, patients following the first course (Table 3, dose level 250 μg m-2): 1/1
No. of toxic patients following the first course (Table 3, dose level 250 μg m-2): 2
Thrombocytopenia grade 3/4, No. of courses (Table 3, dose level 250 μg m-2): 1/1
Thrombocytopenia grade 3/4, No. of patients (worst grade per patient) (Table 3, dose level 250 μg m-2): 1/1
Thrombocytopenia grade 3/4, patients following the first course (Table 3, dose level 250 μg m-2): 1/0
No. of toxic patients/courses (grade 3/4 neutropenia and/or thrombocytopenia) (Table 3, dose level 250 μg m-2, 5/7 evaluable patients/courses): 2/3
Neutropenia grade 3/4, No. of courses (Table 3, dose level 300 μg m-2): 1/2
Neutropenia grade 3/4, No. of patients (worst grade per patient) (Table 3, dose level 300 μg m-2): 1/2
Neutropenia grade 3/4, patients following the first course (Table 3, dose level 300 μg m-2): 1/2
No. of toxic patients following the first course (Table 3, dose level 300 μg m-2): 3
Thrombocytopenia grade 3/4, No. of courses (Table 3, dose level 300 μg m-2): 1/1
Thrombocytopenia grade 3/4, No. of patients (worst grade per patient) (Table 3, dose level 300 μg m-2): 1/1
Thrombocytopenia grade 3/4, patients following the first course (Table 3, dose level 300 μg m-2): 1/1
No. of toxic patients/courses (grade 3/4 neutropenia and/or thrombocytopenia) (Table 3, dose level 300 μg m-2, 4/4 evaluable patients/courses): 3/3
Anorexia, patients with worst CTC-grade 1 [1]: 5
Anorexia, patients with worst CTC-grade 2 [1]: 5
Anorexia, patients with worst CTC-grade 3 [1]: 0
Anorexia, patients with worst CTC-grade 4 [1]: 0
Bilirubin toxicity, patients with worst CTC-grade 2 [1]: 6
Bilirubin toxicity, patients with worst CTC-grade 3 [1]: 1
Bilirubin toxicity, patients with worst CTC-grade 4 [1]: 0
Creatinine toxicity, patients with worst CTC-grade 1 [1]: 6
Creatinine toxicity, patients with worst CTC-grade 2 [1]: 1
Creatinine toxicity, patients with worst CTC-grade 3 [1]: 0
Creatinine toxicity, patients with worst CTC-grade 4 [1]: 0
Diarrhoea, patients with worst CTC-grade 1 [1]: 5
Diarrhoea, patients with worst CTC-grade 2 [1]: 1
Diarrhoea, patients with worst CTC-grade 3 [1]: 0
Fatigue/asthenia, patients with worst CTC-grade 1 [1]: 3
Fatigue/asthenia, patients with worst CTC-grade 2 [1]: 9
Fatigue/asthenia, patients with worst CTC-grade 3 [1]: 3
Fatigue/asthenia, patients with worst CTC-grade 4 [1]: 0
Fever, patients with worst CTC-grade 1 [1]: 4
Fever, patients with worst CTC-grade 2 [1]: 5
Fever, patients with worst CTC-grade 3 [1]: 2
Fever, patients with worst CTC-grade 4 [1]: 0
Mucositis, patients with worst CTC-grade 1 [1]: 7
Mucositis, patients with worst CTC-grade 2 [1]: 1
Mucositis, patients with worst CTC-grade 3 [1]: 0
Mucositis, patients with worst CTC-grade 4 [1]: 0
Nausea, patients with worst CTC-grade 1 [1]: 11
Nausea, patients with worst CTC-grade 2 [1]: 6
Nausea, patients with worst CTC-grade 3 [1]: 2
Nausea, patients with worst CTC-grade 4 [1]: 0
Pain at the infusion site, patients with worst CTC-grade 1 [1]: 9
Pain at the infusion site, patients with worst CTC-grade 2 [1]: 2
Pain at the infusion site, patients with worst CTC-grade 3 [1]: 0
Pain at the infusion site, patients with worst CTC-grade 4 [1]: 0
Proteinuria, patients with worst CTC-grade 1 [1]: 3
Proteinuria, patients with worst CTC-grade 2 [1]: 0
Proteinuria, patients with worst CTC-grade 3 [1]: 0
Proteinuria, patients with worst CTC-grade 4 [1]: 0
Vomiting, patients with worst CTC-grade 1 [1]: 7
Vomiting, patients with worst CTC-grade 2 [1]: 5
Vomiting, patients with worst CTC-grade 3 [1]: 2
Vomiting, patients with worst CTC-grade 4 [1]: 0
Diarrhoea, patients with worst CTC-grade 4 (Table 4, dose levels 150-300 μg m-2 combined, 31 evaluable patients, relation to Carzelesin was unlikely): 1
patients who received red cell transfusions while on study (different dose levels from 130): Nine patients
patients with grade 4 myelotoxicity (dose level 150, six evaluable patients): two patients out of six
episode of febrile neutropenia (dose level 250): One patient
patients with grade 4 neutropenia (dose level 300): two out of four
patients with grade 4 myelotoxicity (dose levels 96 and 130): two patients
grade 3 or 4 haematological toxicities (first two dose levels (24, 48)): no grade 3 or 4 haematological toxici- ties were observed
second drop in leucocyte and neutrophil count after apparent recovery, evaluable courses (from the dose level of 130): 26%
second drop in leucocyte and neutrophil count after apparent recovery, evaluable patients (from the dose level of 130): 33%
non-haematological toxicities, overall (grade 1-2, none clearly dose related): infrequent and mild
flush reaction, patients (in vivo): five patients
haemorrhagic episodes during treatment (in vivo): No haemorrhagic episodes
dose-limiting toxicity (mainly neutropenia, to a lesser extent thrombocytopenia): haematological
median days to complete recovery, neutrophils (overall, median (range)): 28 (20-35) days
median days to complete recovery, platelets (overall, median (range)): 33 (24-56) days
median days to nadir, neutrophils (overall, median (range)): 12 (8-14) days
median days to nadir, platelets (overall, median (range)): 20 (15-26) days
